Data published in ChEMBL document CHEMBL1128724, “Unsaturated acyclic analogues of 2'-deoxyadenosine and thymidine containing fluorine: synthesis and biological activity” (J Med Chem, 1995).

Legend:
L1210 = assay: Growth inhibition of murine leukemia L1210 cells.; assay type: functional, cell-based; settings: Mus musculus
ATH-8 cell line [1] = assay: Inhibitory activity against HIV-1 in ATH8 cells; assay type: functional, cell-based; settings: Homo sapiens
ATH-8 cell line [2] = assay: Inhibitory activity against HIV-1 in ATH8 cells; IA means Inactive; assay type: functional, cell-based, Homo sapiens

IC50 (L1210) | Structure (SMILES) | also measured
89 µM | Nc1ncnc2c1ncn2C(F)C#CCO (centres undefined) | –
60 µM | Cc1cn(C/C=C(/F)CO)c(=O)[nH]c1=O | –
– | Nc1ncnc2c1ncn2C/C=C(/F)CO | IC50 (ATH-8 cell line [1]): 100 µM
– | Nc1ncnc2c1ncn2C/C=C(\F)CO | IC50 (ATH-8 cell line [2]): Not Active
